Measured values: US11273176B2, “Use of PLA2G5-deficient suppressive macrophages in suppression of inflammation” (THE BRIGHAM AND WOMEN'S HOSPITAL, INC., priority 2016, dated 2022)

Experiments:
Wt ILC2 = experiment: In-vitro stimulation of sorted Wt ILC2, intracellular IL-5 by flow cytometry; format: cell-based, mouse; settings: LA 200 μM, 8 h; for percentage of IL-5-expressing ILC2s: OA 200 μM or IL-33 30 ng/ml alone
Experimental: (§1) Lung were manually chopped to approximately 10 mm pieces, then digested in RPMI containing 428 U/ml Collagenase IV (Worthington, Lakewood, N.J.) and 20 mg/ml DNAse I (Roche, Mannheim, Germany) (30 min, 37° C.). After red cell lysis, the obtained cell suspension from single mouse was washed, and counted. After washing, cells were blocked (1 h, 4° C.) with 1% of rat anti mouse CD16/CD32 (BD Biosciences, San Jose, Calif.) and 10% donkey serum and then stained (1 h, 4° C.) with appropriate Abs. Mouse cells were stained with CD45 PercPCy5 (clone 30-F11, BioLegend, San Diego, Calif.), CD19 FITC (6D5, Biolegend), CD3 FITC (145-2C11, BioLegend), CD11b FITC (M1/70, BioLegend), CD11c PE-Cy7 FITC (N418, BioLegend), Ly6G/C FITC (RB6-8C5, eBiosciences), Nk1.1 FITC (PK136, Biolegend), FceR1 FITC (MAR-1, Biolegend), Siglec-F APC (E50-2440, BD Bioscience), Thy 1.2 APC (53-2.1, eBioscience, San Diego, Ca), ICOS (C398.4A, eBiosciences), Sca-1 (D7, eBioscieces), CD25 (PC61, eBiosciences), ST2 biotin (clone DJ8, MD Bioscience) followed by PE streptavidin (eBiosciences). In selected experiments cells were fixed with 4% paraformaldehyde (7 min, 21° C.), washed, permeabilized with 0.1% saponin (SigmaAldrich, St Louis, Ca) (7 min, 21° C.) and stained with CD68 APC (FA-11, AbD Serotec, Raleigh, Nc), IL-5 PE (TRFKS, Biolegend), IL-13 (eBio13A eBiosciences), IL-33 PE (396118, R&D Systems, Minneapolis, Minn.), rabbit polyclonal anti murine RELM-a (Peprotech, Rocky Hill N.J.)) and corresponding isotypes as controls. Acquisition was performed on a FACSCanto flow cytometer with FACSDiva software (BD Biosciences), and data were analyzed with FlowJo (Tree Star, Ashland, Oreg.).
(§2) Wt and Pla2g5-null mice received four doses of 25 ug of Alternaria in 20 ul of PBS intranasally on day 0, 3, 6 and 9 and euthanized 18h later in order to expand ILC2 prior to FACs sorting. Sorting of ILC2 (CD45+ Lin− (CD3, CD19, Ly6g, CD11c, CD11b, Nk1.1, FcεR1^−), Thy1.2+) was performed using a FACSDiva 8.0.1 cell sorter (BD bio-science). Purified ILC2 (>98%) were rested for 40 hours with 10 ng/mL rIL-2 and rIL-7 (R&D Systems, Minneapolis, Minn.) in a 96 well around bottom plates (20000 cells per well). Prior to stimulation, the medium was changed to fresh medium. ILC2 were cultured with 30 ng/mL rIL-33 (R&D Systems), 200 μM Linoleic Acid (Cayman Chemical) or 200 μM Oleic Acid (Cayman Chemical)^22 or all together for 8h. For intracellular cytokine staining, 1 μl/mL of Golgi Plug (BD Bioscience) was added to ILC2 6h before collection for FACs analysis.

Pla2g5-null mice = experiment: IL-33-induced pulmonary inflammation (intranasal r-IL-33 with or without LA/OA) in Pla2g5-null mice; format: in vivo, mouse; settings: for IL-33-induced eosinophilia (numbers of eosinophils), effect of FFA given with IL-33 / pulmonary inflammation: intranasal, 4 doses in 10 days; for pulmonary inflammation: agent given alone
Experimental: (§3) C57/BL6 Wt and Pla2g5-null mice^46, 47 (9-12 wk-old males) received 25 μg of Alternaria haracter extract (Greer Laboratories, Lenoir, N.C.) in 20 uL of PBS or PBS alone intranasally on days 0, 3, 6 and 9 and euthanized 18 hours later^1 or a single dose of 100 μg and were euthanized after 1 h or 3 h^2. For IL-33-induced pulmonary inflammation, Wt and Pla2g5-null naïve mice were given mouse rIL-33 (R&D Systems, Minneapolis, Minn.) intranasally (i.n.) 100 ng/dose on days 0, 3, 6 and 9 with or without LA (132 nM)^28 or OA (106 nM), and mice were euthanized 18 hours after the last dose.
as §1

Pla2g5-null ILC2 = experiment: In-vitro stimulation of sorted Pla2g5-null ILC2, intracellular IL-5 by flow cytometry; format: cell-based, mouse; settings: LA 200 μM, 8 h; for percentage of IL-5-expressing ILC2s: OA 200 μM or IL-33 30 ng/ml alone; for IL-33-induced increase in IL-5 positive ILC2s, effect of FFA: OA 200 μM with IL-33 30 ng/ml
Experimental: as §1, §2

C57/BL6 Wt mice = experiment: IL-33-induced pulmonary inflammation (intranasal r-IL-33 with or without LA/OA) in Wt mice; format: in vivo, mouse; settings: for pulmonary inflammation: agent given alone
Experimental: as §3, §1

CCCCC/C=C\C/C=C\CCCCCCCC(=O)O [LA, linoleic acid]
percentage of IL-5-expressing ILC2s (Wt ILC2): Neither LA nor OA induced significant IL-5 expression
IL-33-induced expression of IL-5 by ILC2s, effect of FFA (Wt ILC2; OA 200 μM with IL-33 30 ng/ml): significantly potentiated
IL-33-induced eosinophilia (numbers of eosinophils), effect of FFA given with IL-33 (Pla2g5-null mice): failed to potentiate
pulmonary inflammation (Pla2g5-null mice): Neither LA nor OA alone caused pulmonary inflammation
percentage of IL-5-expressing ILC2s (Pla2g5-null ILC2): Neither LA nor OA induced significant IL-5 expression
IL-33-induced increase in IL-5 positive ILC2s, effect of FFA (Pla2g5-null ILC2): suppressed
IL-33-induced eosinophilia (numbers of eosinophils), effect of FFA given with IL-33 (C57/BL6 Wt mice; intranasal, 4 doses in 10 days): sharp potentiation
pulmonary inflammation (C57/BL6 Wt mice; intranasal, 4 doses in 10 days): Neither LA nor OA alone caused pulmonary inflammation

CCCCCCCC/C=C\CCCCCCCC(=O)O [OA, oleic acid]
percentage of IL-5-expressing ILC2s (Wt ILC2): Neither LA nor OA induced significant IL-5 expression
IL-33-induced eosinophilia (numbers of eosinophils), effect of FFA given with IL-33 (Pla2g5-null mice): substantially enhance
pulmonary inflammation (Pla2g5-null mice): Neither LA nor OA alone caused pulmonary inflammation
percentage of IL-5-expressing ILC2s (Pla2g5-null ILC2): Neither LA nor OA induced significant IL-5 expression
IL-33-induced increase in IL-5 positive ILC2s, effect of FFA (Pla2g5-null ILC2): inactive
pulmonary inflammation (C57/BL6 Wt mice; intranasal, 4 doses in 10 days): Neither LA nor OA alone caused pulmonary inflammation

B1: IL-33: mouse rIL-33 (R&D Systems) given intranasally or added to ILC2 cultures (protein, UniProt Q8BVZ5 1-266, looked up)
Interleukin-33: MRPRMKYSNSKISPAKFSSTAGEALVPPCKIRRSQQKTKEFCHVYCMRLRSGLTIRKETSYFRKEPTKRYSLKSGTKHEENFSAYPRDSRKRSLLGSIQAFAASVDTLSIQGTSLLTQSPASLSTYNDQSVSFVLENGCYVINVDDSGKDQEQDQVLLRYYESPCPASQSGDGVDGKKLMVNMSPIKDTDIWLHANDKDYSVELQRGDVSPPEQAFFVLHKKSSDFVSFECKNLPGTYIGVKDNQLALVEEKDESCNNIMFKLSKI
percentage of IL-5-expressing ILC2s (Wt ILC2): significantly increased
numbers of eosinophils, ILC2 and Sca-1+ILC2 (Pla2g5-null mice; IL-33 i.n. over 10 days, compared with Wt controls): markedly diminished
macrophage activation (RELMα in macrophages) (Pla2g5-null mice; exogenous IL-33 for 10 days): markedly impaired
pulmonary inflammation (Pla2g5-null mice): insufficient
percentage of IL-5-expressing ILC2s (Pla2g5-null ILC2): significantly increased
numbers of eosinophils, ILC2s and Sca-1+ILC2 (C57/BL6 Wt mice; IL-33 i.n. over 10 days (100 ng/dose days 0, 3, 6, 9), homogenate lungs, flow cytometry): robustly increased
macrophage activation (RELMα in macrophages) (C57/BL6 Wt mice; exogenous IL-33 for 10 days): induced substantial macrophage activation
pulmonary inflammation (C57/BL6 Wt mice; intranasal, 4 doses in 10 days): induces
